Experimental data reported in US9675571B2, “Inhibitors of indoleamine 2,3-dioxygenase (IDO)” (BRISTOL-MYERS SQUIBB COMPANY, priority 2013, dated 2017).

Each compound was assayed against Human IDO1 (Homo sapiens (Human), UniProt P14902) (assay: IDO Kynurenine Assay with Human IDO1/HEK293 Cells). Conditions: 20 hours incubation, kynurenine detected with Ehrlich reagent, absorbance at 490 nm, read-out: HEK Human IDO-1 IC50.
Format: cell-based
Experimental: Human IDO1/HEK293 cells were seeded at 10,000 cells per 50 uL per well with RPMI/phenol red free media contains 10% FBS in a 384-well black wall clear bottom tissue culture plate (Matrix Technologies LLC) 125 nL of certain concentration of compound was then added to each well using ECHO liquid handling systems. The cells were incubated for 20 hours in 37° C. incubator with 5% CO2.
The compound treatments were stopped by adding Trichloroacetic Acid (Sigma-Aldrich) to a final concentration at 0.2%. The cell plate was further incubated at 50° C. for 30 minute. The equal volume supernatant (20 uL) and 0.2% (w/v) Ehrlich reagent (4-dimethylaminobenzaldehyde, Sigma-Aldrich) in glacial acetic acid were mixed in a new clear bottom 384-well plate. This plate was then incubated at room temperature for 30 minute. The absorbance at 490 nm was measured on Envision plate reader.
Compound IC50 values were calculated using the counts of 500 nM of a reference standard treatment as one hundred percent inhibition, and counts of no compound but DMSO treatment as zero percent inhibition.

Human IDO1, sequence (P14902 whole entry): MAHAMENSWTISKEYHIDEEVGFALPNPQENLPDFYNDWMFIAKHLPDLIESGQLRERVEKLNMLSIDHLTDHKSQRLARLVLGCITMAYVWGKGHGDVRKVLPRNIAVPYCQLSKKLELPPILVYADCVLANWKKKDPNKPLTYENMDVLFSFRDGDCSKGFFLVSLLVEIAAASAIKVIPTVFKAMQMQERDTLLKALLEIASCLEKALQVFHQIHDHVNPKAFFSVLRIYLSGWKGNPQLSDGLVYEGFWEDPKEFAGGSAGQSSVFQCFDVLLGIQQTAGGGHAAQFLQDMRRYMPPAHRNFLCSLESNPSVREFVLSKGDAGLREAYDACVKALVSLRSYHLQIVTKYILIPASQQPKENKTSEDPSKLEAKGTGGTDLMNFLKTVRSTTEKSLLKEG

SMILES | IC50 [nM]
O=C(Nc1cncnc1)Nc1cc([C@H]2C[C@H]2C(=O)O)ccc1N(CCC(F)(F)F)C1CCCCC1 [Example 87, (1R,2S)-2-(4-(cyclohexyl(3,3,3-trifluoropropyl)amino)-3-(3-(pyrimidin-5-yl)ureido)phenyl)cyclopropanecarboxylic acid] | 994
CC(C)CN(CC(C)C)c1ccc([C@@H]2C[C@@H]2C(=O)O)cc1NC(=O)Nc1cc(C(F)(F)F)no1 [Example 37, (1S,2R)-2-(4-(diisobutylamino)-3-(3-(3-(trifluoromethyl)isoxazol-5-yl)ureido)phenyl)cyclopropanecarboxylic acid] | 7
Cc1cc(NC(=O)Nc2cc([C@H]3C[C@H]3C(=O)O)ccc2N(CC(C)C)C2CCCCC2)on1 [Example 129, (1R,2S)-2-(4-(cyclohexyl(isobutyl)amino)-3-(3-(3-methylisoxazol-5-yl)ureido)phenyl)cyclopropanecarboxylic acid] | 0.5
Cc1ccc(CC(=O)Nc2cc([C@H]3C[C@H]3C(=O)O)ccc2N(CC(C)C)CC(C)C)cc1 [Example 60, (1R,2S)-2-(4-(diisobutylamino)-3-(2-(p-tolyl)acetamido)phenyl)cyclopropanecarboxylic acid] | 21
O=C(Nc1cncnc1)Nc1cc([C@H]2C[C@H]2C(=O)O)ccc1N(CCCC(F)(F)F)C1CCCCC1 [Example 75] | 787
Cc1ncc(NC(=O)Nc2cc([C@@H]3C[C@@H]3C(=O)O)ccc2N(CC(C)C)CC(C)C)cn1 [Example 77, (1S,2R)-2-(4-(diisobutylamino)-3-(3-(2-methylpyrimidin-5-yl)ureido)phenyl)cyclopropanecarboxylic acid] | 64
CC(C)CN(CC(C)C)c1ccc([C@H]2C[C@H]2C(=O)O)cc1NC(=O)Cc1ccc(F)cc1 [Example 117, (1R,2S)-2-(4-(diisobutylamino)-3-(2-(4-fluorophenyl)acetamido)phenyl)cyclopropanecarboxylic acid] | 97
CC(C)CN(CC(C)C)c1ccc([C@H]2C[C@H]2C(=O)O)cc1NC(=O)Nc1ccc(Cl)c(Cl)c1 [Example 6, (1R,2S)-2-(3-(3-(3,4-dichlorophenyl)ureido)-4-(diisobutylamino)phenyl) cyclopropanecarboxylic acid] | 148
CC(C)CN(CC(C)C)c1ccc([C@@H]2C[C@@H]2C(=O)O)cc1NC(=O)Nc1ccc(OCC(F)(F)F)cc1 [Example 72, (1S,2R)-2-(4-(diisobutylamino)-3-(3-(4-(2,2,2-trifluoroethoxy)phenyl)ureido)phenyl)cyclopropanecarboxylic acid] | 200
COC(=O)C1CC1c1ccc(N(CC(C)C)CC(C)C)c([N+](=O)[O-])c1 (stereo not drawn) [ent-1J] | 2
Cc1ccc(NC(=O)Nc2cc([C@H]3C[C@H]3C(=O)O)ccc2N(CC(C)C)CC(C)C)c(Cl)c1 [Example 14, (1R,2S)-2-(3-(3-(2-chloro-4-methylphenyl)ureido)-4-(diisobutylamino)phenyl) cyclopropanecarboxylic acid] | 86
CCOC(=O)Nc1ccc(NC(=O)Nc2cc([C@@H]3C[C@@H]3C(=O)O)ccc2N(CC(C)C)CC(C)C)cc1 [Example 71, (1S,2R)-2-(4-(diisobutylamino)-3-(3-(4-((ethoxycarbonyl)amino)phenyl)ureido)phenyl)cyclopropanecarboxylic acid] | 519
COC(=O)[C@@H]1C[C@@H]1c1ccc(N(CC(C)C)CC(C)C)c([N+](=O)[O-])c1 [Example 1J, (1R,2S)-methyl 2-(4-(diisobutylamino)-3-nitrophenyl) cyclopropanecarboxylate] | 8
Cc1ccc(CC(=O)Nc2cc([C@H]3C[C@H]3C(=O)O)ccc2N(CC(C)C)CC(C)C)cn1 [Example 118, (1R,2S)-2-(4-(diisobutylamino)-3-(2-(6-methylpyridin-3-yl)acetamido)phenyl)cyclopropanecarboxylic acid] | 126
Cc1ccc(NC(=O)Nc2cc([C@@H]3C[C@@H]3C(=O)O)ccc2N(CCCC(F)(F)F)C2CCCCC2)cc1 [Example 76, (1S,2R)-2-(4-(cyclohexyl(4,4,4-trifluorobutyl)amino)-3-(3-(p-tolyl)ureido)phenyl)cyclopropanecarboxylic acid] | 338
CC(C)CN(CC(C)C)c1ccc([C@@H]2C[C@@H]2C(=O)O)cc1NC(=O)Nc1ccc(C2CC2)cc1 [Example 20, (1S,2R)-2-(3-(3-(4-cyclopropylphenyl)ureido)-4-(diisobutylamino)phenyl) cyclopropanecarboxylic acid] | 61
Cc1ccc(NC(=O)Nc2cc([C@H]3C[C@H]3C(=O)O)ccc2N(CCCC(F)(F)F)C2CCCCC2)cc1 [Example 73, (1R,2S)-2-(4-(cyclohexyl(4,4,4-trifluorobutyl)amino)-3-(3-(p-tolyl)ureido)phenyl)cyclopropanecarboxylic acid] | 527
CC(C)CN(CC(C)C)c1ccc([C@H]2C[C@H]2C(=O)O)cc1NC(=O)Nc1cc(C2CC2)no1 [Example 34, (1R,2S)-2-(3-(3-(3-cyclopropylisoxazol-5-yl)ureido)-4-(diisobutylamino)phenyl)cyclopropanecarboxylic acid] | 2
Cc1cc(NC(=O)Nc2cc([C@@H]3C[C@@H]3C(=O)O)ccc2N(CC(C)C)CC(C)C)on1 [Example 31, (1S,2R)-2-(4-(diisobutylamino)-3-(3-(3-methylisoxazol-5-yl)ureido)phenyl)cyclopropanecarboxylic acid] | 4
CC(C)CN(CC(C)C)c1ccc([C@H]2C[C@H]2C(=O)O)cc1NC(=O)Nc1ccc(CC#N)cc1 [Example 15, (1R,2S)-2-(3-(3-(4-(cyanomethyl)phenyl)ureido)-4-(diisobutylamino)phenyl) cyclopropanecarboxylic acid] | 541
Cc1cc(CC(=O)Nc2cc([C@@H]3C[C@@H]3C(=O)O)ccc2N(CC(C)C)CC(C)C)on1 [Example 63, (1S,2R)-2-(4-(diisobutylamino)-3-(2-(3-methylisoxazol-5-yl)acetamido)phenyl) cyclopropanecarboxylic acid] | 262
CC(C)CN(CC(C)C)c1ccc([C@H]2C[C@H]2C(=O)O)cc1NC(=O)Nc1ccccc1Cl [Example 9, (1R,2S)-2-(3-(3-(2-chlorophenyl)ureido)-4-(diisobutylamino)phenyl) cyclopropanecarboxylic acid] | 97
CC(C)CN(CC(C)C)c1ccc([C@H]2C[C@H]2C(=O)O)cc1NC(=O)Nc1cc(C(F)(F)F)no1 [Example 36, (1R,2S)-2-(4-(diisobutylamino)-3-(3-(3-(trifluoromethyl)isoxazol-5-yl)ureido)phenyl)cyclopropanecarboxylic acid] | 7
Cc1cccc(NC(=O)Nc2cc([C@@H]3C[C@@H]3C(=O)O)ccc2N(CC(C)C)CC(C)C)c1 [Example 19, (1S,2R)-2-(4-(diisobutylamino)-3-(3-(m-tolyl)ureido)phenyl) cyclopropanecarboxylic acid] | 442
Cc1cc(NC(=O)Nc2cc([C@H]3C[C@H]3C(=O)O)ccc2N(CC(C)C)CC(C)C)on1 [Example 30, (1R,2S)-2-(4-(diisobutylamino)-3-(3-(3-methylisoxazol-5-yl)ureido)phenyl)cyclopropanecarboxylic acid] | 6
CC(C)CN(CC(C)C)c1ccc([C@H]2C[C@H]2C(=O)O)cc1NC(=O)Nc1ccc(C(F)(F)F)cc1 [Example 5, (1R,2S)-2-(4-(diisobutylamino)-3-(3-(4-(trifluoromethyl)phenyl)ureido)phenyl)cyclopropanecarboxylic acid] | 941
COCCN(Cc1ccc(Cl)cc1)c1ccc([C@H]2C[C@H]2C(=O)O)cc1NC(=O)Nc1ccc(C)cc1 (single isomer, unassigned) [Example 43] | 88
Cc1cc(NC(=O)Nc2cc([C@@H]3C[C@@H]3C(=O)O)ccc2N(CC(C)C)CC(C)C)no1 [Example 67, (1S,2R)-2-(4-(diisobutylamino)-3-(3-(5-methylisoxazol-3-yl)ureido)phenyl)cyclopropanecarboxylic acid] | 23
